Results on 18 compounds are retold here after patent publication US7211574B2, “Selective D1/D5 receptor antagonists for the treatment of obesity and CNS disorders” (Schering Corporation, priority 2002, dated 2007).

Read-outs that look alike come from different tables or passages of the source.

For one experiment, the target named is T1, human D1 receptor (Homo sapiens, UniProt P21728).
T1 construct: expressed in transfected cells; host or cells: Ltk- cells (mouse fibroblast line), membrane preparation
T1 sequence (P21728 whole entry): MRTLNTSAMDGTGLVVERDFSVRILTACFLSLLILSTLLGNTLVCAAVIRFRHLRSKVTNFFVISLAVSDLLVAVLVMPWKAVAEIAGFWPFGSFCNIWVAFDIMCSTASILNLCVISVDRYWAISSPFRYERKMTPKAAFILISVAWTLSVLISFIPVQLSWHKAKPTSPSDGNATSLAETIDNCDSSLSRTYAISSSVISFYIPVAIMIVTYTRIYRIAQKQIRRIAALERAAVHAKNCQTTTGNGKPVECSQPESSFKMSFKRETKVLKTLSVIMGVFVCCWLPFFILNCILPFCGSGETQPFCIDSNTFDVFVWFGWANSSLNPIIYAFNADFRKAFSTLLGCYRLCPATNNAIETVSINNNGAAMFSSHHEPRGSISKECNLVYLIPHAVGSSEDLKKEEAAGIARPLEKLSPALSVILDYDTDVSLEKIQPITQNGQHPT
Description: radioligand binding competition assay, D1. As to the method:
(§1) Affinity values (Ki) of compounds at human D1 and D2 receptors were ascertained using radioligand binding competition assays. Ltk- cells expressing D1 and D2 (long variant) receptors were lysed in hypotonic buffer for membrane preparation. Membranes were incubated with various concentrations of test compound and 1 nM [3H] of a compound of formula III and 0.2 nM [3H] Methylspiperone for D1 and D2 assays, respectively. Non-specific binding was defined as binding in the presence of 10 micromolar of a compound of formula III for D1 assays and 10 micromolar butaclamol for […]. Following incubation to equilibrium (1 hour at room temperature), bound radioligand was separated from free by rapid filtration. Bound radioactivity on the dried filters was quantified by liquid scintillation counting.

In experiment [1] the target is T2, human D2 (long variant) receptor (Homo sapiens, UniProt P14416).
T2 construct: expressed in transfected cells; host or cells: Ltk- cells (mouse fibroblast line), membrane preparation
The experiment is described as follows: radioligand binding competition assay, D2. As to conditions: membranes of Ltk- cells expressing D2 (long variant); 0.2 nM [3H] Methylspiperone; 1 hour at room temperature. The procedure:
as §1

The mark [2] stands for this setting: membranes of Ltk- cells expressing D1, 1 nM [3H] compound of formula III, 1 hour at room temperature, read-out: D1 (Ki).

In general, Ki refers to the dissociation constant of the complex between target and ligand, obtained from inhibition or displacement. As to `CN1CCc2cc(Cl)c3[nH]c(O)nc3c2[C@@H](c2ccccc2)C1` [Compound 16B], the inhibition constant (Ki) at human D1 receptor (setting [2]) amounted to 350 nM.

For the compound `CN1CCc2cc(Cl)c3nc(O)sc3c2[C@@H](c2ccccc2)C1` [Compound 25B], the inhibition constant Ki came out at 115 nM at human D1 receptor (setting [2]) and 2890 nM in experiment [1].

As for `CN1CCc2cc(Cl)c3[nH]cnc3c2[C@H]2c3ccccc3CC[C@@H]21` [Compound 13A], the inhibitory constant (Ki) was determined as 248 nM at human D1 receptor (setting [2]) and 984 nM in experiment [1].

Consider `CN1CCc2cc(Cl)c3[nH]c(=S)[nH]c3c2[C@H]2c3ccccc3CC[C@@H]21` [Compound 17A], for which the Ki on human D1 receptor was determined as 40 nM; in experiment [1], 1040 nM.

Turning to `Oc1nc2c(Cl)cc3c(c2[nH]1)[C@@H](c1ccccc1)CNCC3` [Compound 18B], on human D1 receptor (setting [2]), the Ki is 1900 nM.

Take `Clc1cc2c(c3cn[nH]c13)[C@@H](c1ccccc1)CNCC2` [Compound 6]: the Ki on human D1 receptor (setting [2]) was 183 nM; in experiment [1], 5010 nM.

Turning to `CN1CCc2cc(Cl)c3[nH]nnc3c2[C@H]2c3ccccc3CC[C@@H]21` [Compound 15A], the inhibition constant Ki on human D1 receptor (setting [2]) came to 146 nM; in experiment [1] it was 1530 nM.

As for `CN1CCc2cc(Cl)c3[nH]c(=O)[nH]c3c2[C@H]2c3cccc(-c4ccccc4)c3CC[C@@H]21` [Compound 27], the Ki at human D1 receptor (setting [2]) stood at 1.9 nM; in experiment [1], 336 nM.

In the case of `O=c1[nH]c2c(Cl)cc3c(c2[nH]1)[C@H]1c2cccc(Br)c2CC[C@@H]1NCC3` [Compound 18C], the values for the Ki (at human D1 receptor (setting [2]); in experiment [1]) were 11.3 nM and 648 nM, respectively.

With `CN1CCc2cc(Cl)c3[nH]c(=O)sc3c2[C@H]2c3ccccc3CC[C@@H]21` [Compound 25A], the figures for the Ki (at human D1 receptor; in experiment [1]) were 2.1 nM and 257 nM, respectively.

`CN1CCc2cc(Cl)c3[nH]c(=O)[nH]c3c2[C@H]2c3cccc(Br)c3CC[C@@H]21` [Compound 16C]: the Ki at human D1 receptor (setting [2]) came to 6.1 nM; in experiment [1] it was 172 nM.

On to `O=c1[nH]c2c(Cl)cc3c(c2s1)[C@@H](c1ccccc1)CNCC3` [Compound 26B], for which the Ki stood at 1080 nM on human D1 receptor (setting [2]) and 3200 nM in experiment [1].

`CN1CCc2cc(Cl)c3[nH]ncc3c2[C@@H](c2ccccc2)C1` [Compound 4]: the inhibition constant Ki is 14 nM at human D1 receptor (setting [2]) and 3550 nM in experiment [1].

For `Oc1nc2c(Cl)cc3c(c2[nH]1)[C@H]1c2ccccc2CC[C@@H]1NCC3` [Compound 18A], the inhibitory constant (Ki) came to 16.5 nM at human D1 receptor and 3270 nM in experiment [1].

Regarding `CN1CCc2cc(Cl)c3[nH]c(=S)[nH]c3c2[C@@H](c2ccccc2)C1` [Compound 17B], the inhibitory constant (Ki) on human D1 receptor (setting [2]) amounted to 1790 nM.

As to `CN1CCc2cc(Cl)c3[nH]c(O)nc3c2[C@H]2c3ccccc3CC[C@@H]21` [Compound 16A], the Ki on human D1 receptor was determined as 7 nM; in experiment [1], 1020 nM.

As to `O=c1[nH]c2c(Cl)cc3c(c2s1)[C@H]1c2ccccc2CC[C@@H]1NCC3` [Compound 26A], the Ki on human D1 receptor amounted to 6.5 nM; in experiment [1], 661 nM.

On to `Cc1cc2c3c(cc(Cl)c2[nH]1)CCN(C)[C@H]1CCc2ccccc2[C@H]31` [Compound 8], for which the Ki at human D1 receptor was found to be 24.7 nM; in experiment [1] it was 232 nM.
